Among the data in patent US20160304556A1, “[…] ACTIVE COMPOUNDS AND THEIR METHODS OF USE” (AGIOS PHARMACEUTICALS, INC, priority 2012, published 2016) are IC50 values, retold here.

SMILES strings stand for the structures.

The target in one assay is IDH1 R132H (Homo sapiens, UniProt O75874, R132H). Kind of assay: In vitro NADPH depletion assay for IDH1m R132H inhibitors. It is filed as biochemical. The settings on record: enzyme, diaphorase/resazurin readout, read-out: IDH R132H IC50. A digest of the protocol:
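IDH1-R132H homodimer […] was preincubated with compound for 60 min at room temperature in 20 mM Tris-Cl pH 7.5, 150 mM NaCl, 10 mM MgCl2, 0.05% BSA, 2 mM b-mercaptoethanol. Substrate mix (NADPH, 5 mM alpha-ketoglutarate) then reacted for 90 min. Remaining NADPH was read by diaphorase/resazurin fluorescence at Ex544/Em590.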

The next assay has as its target IDH1 R132C (Homo sapiens, UniProt O75874, R132C). Kind of assay: In vitro NADPH depletion assay for IDH1m R132C inhibitors. It is filed as biochemical. The conditions noted are these: enzyme, diaphorase/resazurin readout, read-out: IDH R132C IC50. On the procedure: A test compound is prepared as 10 mM stock in DMSO and diluted to 50× final concentration in DMSO, for a 50 μl reaction mixture. IDH enzyme activity converting alpha-ketoglutarate to 2-hydroxyglutaric acid is measured using a NADPH depletion assay. In the assay the remaining cofactor is measured at the end of the reaction with the addition of a catalytic excess of diaphorase and resazurin, to generate a fluorescent signal in proportion to the amount of NADPH remaining. IDH1-R132 homodimer enzyme is diluted to […] in 40 μl of Assay Buffer(150 mM NaCl, 20 mM Tris-Cl pH 7.5, 10 mM MgCl2, 0.05% BSA, 2 mM b-mercaptoethanol); 1 μl of test compound dilution in DMSO is added and the mixture is incubated for 60 minutes at room temperature. The reaction is started with the addition of 10 μl of Substrate Mix ([…], 5 mM alpha-ketoglutarate, in Assay Buffer) and the mixture is incubated for 90 minutes at room temperature. The reaction is terminated with the addition of 25 μl of Detection Buffer (36 μg/ml diaphorase, […], in 1× Assay Buffer), and is incubated for 1 minute before reading on a SpectraMax platereader at Ex544/Em590.
Compounds are assayed for their activity against IDH1 R132C following the same assay as above with the following modifications: Assay Buffer is (50 mM potassium phosphate, pH 6.5; 40 mM sodium carbonate, 5 mM MgCl2, 10% glycerol, 2 mM b-mercaptoethanol, and 0.03% BSA). The concentration of NADPH and alpha-ketoglutarate in the Substrate Buffer is 20 μM and 1 mM, respectively.
Representative compounds of formula I set forth in Table 1 were tested in this assay and the results are set forth below in Table 3.
Background: Resazurin is reduced to fluorescent resorufin, in cell work by metabolically active cells.

In the next assay the test system is HT1080 cells. Kind of assay: Cellular assay, inhibition of 2-HG production (LC-MS) in HT1080 cells. It is filed as cell-based. The conditions noted are these: Homo sapiens, HT-1080, 48 hours, LC-MS of media. A digest of the protocol:
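HT1080 cells (5000/well) were incubated 48 hours with compound, 0.2% DMSO final. Medium 2-HG was quantified by LC-MS, and IC50 was taken as the concentration giving 50% reduction versus DMSO control. Viability was read by CellTiter-Glo luminescence at 72 hours.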

IDH1 R132H, sequence (O75874 whole entry R132H): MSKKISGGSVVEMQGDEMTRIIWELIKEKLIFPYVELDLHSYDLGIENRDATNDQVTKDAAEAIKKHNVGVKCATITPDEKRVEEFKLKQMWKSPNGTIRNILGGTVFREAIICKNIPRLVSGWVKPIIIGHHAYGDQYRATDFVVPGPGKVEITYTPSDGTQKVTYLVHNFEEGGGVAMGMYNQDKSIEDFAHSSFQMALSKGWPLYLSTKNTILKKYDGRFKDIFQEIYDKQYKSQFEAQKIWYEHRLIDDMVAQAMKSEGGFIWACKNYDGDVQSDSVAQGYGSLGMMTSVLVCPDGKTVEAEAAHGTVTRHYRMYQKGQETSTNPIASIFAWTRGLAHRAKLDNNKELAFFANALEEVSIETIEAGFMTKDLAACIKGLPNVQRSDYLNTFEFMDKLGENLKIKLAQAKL
IDH1 R132C, sequence (O75874 whole entry R132C): as the sequence (O75874 whole entry R132H) above, with H132C counted along it

One may read the IC50 as the concentration that inhibits the measured activity by half. Regarding `O=C(NC1CC(F)(F)C1)[C@H](c1ccccc1Cl)N(C(=O)[C@@H]1CCCN1c1ncccn1)c1cccc(F)c1` [Compound 69, (2S)—N—((S)-(3,3-difluorocyclobutylcarbamoyl)(2-chlorophenyl)methyl)-N-(3-fluorophenyl)-1-(pyrimidin-2-yl)pyrrolidine-2-carboxamide], the IC50 at IDH1 R132H, on IDH1 R132C and in the assay with HT1080 cells was at most 0.1 µM each time.

With `COC(=O)N1C[C@@H](F)C[C@H]1C(=O)N(c1cccc(F)c1)[C@H](C(=O)NC1CC(F)(F)C1)c1ccccc1Cl` [Compound 70], the IC50 was at most 0.1 µM at IDH1 R132H, at most 0.1 µM on IDH1 R132C and 0.1 to 0.5 µM in the assay with HT1080 cells.

In the case of `COC(=O)NCC(=O)N(c1cccc(F)c1)C(C(=O)NC1CC(F)(F)C1)c1ccccc1Cl` (stereo not drawn) [Compound 73, methyl 2-((1-(2-chlorophenyl)-2-(3,3-difluorocyclobutylamino)-2-oxoethyl)(3-fluorophenyl)amino)-2-oxoethylcarbamate], the IC50 is 0.1 to 0.5 µM at IDH1 R132H, 0.1 to 0.5 µM on IDH1 R132C and 0.5 to 1 µM in the assay on HT1080 cells.

On to `CC(C)OC(=O)NCC(=O)N(c1cccc(F)c1)C(C(=O)NC1CC(F)(F)C1)c1ccccc1Cl` (stereo not drawn) [Compound 74], for which the figures for the IC50 at IDH1 R132H, at IDH1 R132C and in the assay on HT1080 cells were 0.1 to 0.5 µM, 0.1 to 0.5 µM and 1 to 2 µM, respectively.

On to `CCOC(=O)NCC(=O)N(c1cccc(F)c1)C(C(=O)NC1CC(F)(F)C1)c1ccccc1Cl` (stereo not drawn) [Compound 75], for which the IC50 on IDH1 R132H lay within 0.1 to 0.5 µM; on IDH1 R132C, 0.1 to 0.5 µM; with HT1080 cells, 0.5 to 1 µM.

In the case of `COCCO[C@@H]1C[C@@H](C(=O)N(c2cccc(F)c2)[C@H](C(=O)NC2CC(F)(F)C2)c2ccccc2Cl)N(C(=O)OC)C1` [Compound 79, (2S,4R)-methyl 2-(((S)-1-(2-chlorophenyl)-2-((3,3-difluoro-cyclobutyl)amino)-2-oxoethyl)(3-fluorophenyl)carbamoyl)-4-(2-methoxyethoxy)pyrrolidine-1-carboxylate], the IC50 on IDH1 R132H, on IDH1 R132C and in the assay on HT1080 cells was at most 0.1 µM each time.

Consider `COC(=O)NCC(=O)N(c1cccc(F)c1)C(C(=O)NC1CCC(F)CC1)c1ccccc1Cl` (stereo not drawn) [Compound 81], for which the IC50 at IDH1 R132H, at IDH1 R132C and with HT1080 cells was 0.1 to 0.5 µM throughout.

For the compound `COC(=O)NCC(=O)N(c1cccc(F)c1)[C@H](C(=O)N[C@H]1CCCCC1(F)F)c1ccccc1Cl` [Compound 82], the concentration for half-maximal inhibition (IC50) on IDH1 R132H is at most 0.1 µM; on IDH1 R132C, at most 0.1 µM; in the assay on HT1080 cells, 0.1 to 0.5 µM.

On to `COC(=O)NCC(=O)N(c1cccc(F)c1)[C@H](C(=O)N[C@@H]1CCCCC1(F)F)c1ccccc1Cl` [Compound 83], for which the IC50 at IDH1 R132H lay in the range of 0.1 to 0.5 µM; on IDH1 R132C, 0.1 to 0.5 µM; in the assay on HT1080 cells, 0.5 to 1 µM.

As for `COC(=O)N[C@@H](CO)C(=O)N(c1cccc(F)c1)[C@H](C(=O)NC1CCCCC1)c1ccccc1Cl` [Compound 84], the values for the 50% inhibitory concentration (IC50) at IDH1 R132H, on IDH1 R132C and with HT1080 cells were at most 0.1 µM, at most 0.1 µM and 0.1 to 0.5 µM, respectively.

For `COC(=O)N[C@@H](CO)C(=O)N(c1cccc(F)c1)[C@@H](C(=O)NC1CCCCC1)c1ccccc1Cl` [Compound 85], the IC50 was at most 0.1 µM on IDH1 R132H, 0.1 to 0.5 µM on IDH1 R132C and 0.5 to 1 µM in the assay on HT1080 cells.

For `O=C(NC1CC(F)(F)C1)C(c1ccccc1Cl)N(C(=O)Cc1cccnc1)c1cccc(F)c1` (stereo not drawn) [Compound 86], the figures for the 50% inhibitory concentration (IC50) on IDH1 R132H, on IDH1 R132C and with HT1080 cells were at most 0.1 µM, at most 0.1 µM and 0.1 to 0.5 µM, respectively.

`Cc1nc(Cl)c(Cl)n1CC(=O)N(c1cccc(F)c1)C(C(=O)NC1CC(F)(F)C1)c1ccccc1Cl` (stereo not drawn) [Compound 87]: the values for the IC50 on IDH1 R132H, at IDH1 R132C and in the assay on HT1080 cells were at most 0.1 µM, at most 0.1 µM and 0.1 to 0.5 µM, respectively.

For `C=CC(=O)Nc1cccc(N(C(=O)Cc2cccnc2)C(C(=O)NC2CC(F)(F)C2)c2ccccc2Cl)c1` (stereo not drawn) [Compound 88, N-(3-(N-(1-(2-chlorophenyl)-2-(3,3-difluorocyclobutylamino)-2-oxoethyl)-2-(pyridin-3-yl)acetamido)phenyl)acrylamide], the IC50 was in the range of 0.5 to 1 µM on IDH1 R132H, 0.1 to 0.5 µM at IDH1 R132C and 1 to 2 µM in the assay with HT1080 cells.
